Measurements: patent US20210032257A1, “(E)-1-(4-(DIMETHYLAMINO)BUT-2-ENOYL)PYRROLIDIN-3-YL 4-((3-ISOPROPYL-5-METHYLPYRAZOLO[1,5-A]PYRIMIDIN-7-YL)AMINO)PIPERIDINE-1-CARBOXYLATE FOR INHIBITING CDK7” (Eli Lilly and Company, priority 2017, published 2021)

How the values were obtained:
Assay in all cases: Biomarker study proliferation (CellTiter-Glo)
Assay type in all cases: cell-based
KYSE30 = tested on: KYSE30
Experimental: (§1) Cancer cell lines are profiled to evaluate the anti-proliferative activity of a test compound in-vitro. Mutation, copy number and gene expression information of ARID1A, KMT2C, KMT2D and/or RB1 genes across cancer cell lines is obtained from COSMIC database (cancer.sanger.ac.uk) and cBioportal (http://www.cbioportal.org/). Cells are cultured in growth medium and plated into a 96-well plate in 100 μL/well growth medium at 5000 cells/well then incubated at 37° C., 5% CO2 overnight. Cells are cultured using supplier recommended media and conditions well known in the art, for example with RPMI 1640 with or without HEPES & L-Glutamine (Thermo SH30255.01) and 1 mM Sodium Pyruvate, and 10% FBS(Gibco cat #10082). The 1000× intermediate dilution plate is prepared by making a 10 mM working solution of a test sample in DMSO and performing 1:3 dilutions in DMSO for 10 points. The 10× dosing plate is prepared by adding 2 μL from the 1000× intermediate dilution plate to 198 μL of OPTIMEM®+10% FBS and mixing well. The cell plate is then treated by adding 11 μL from the 10× dosing plate into the 100 μL/well cell plate for a 1× final concentration. Staurosporine is used as a maximum growth inhibition control at a final concentration of 5 μM. The cell plate is incubated for 7 days at 37° C., 5% CO2. Seven days after treatment, Cell Titer-Glo® (Promega cat #G7571) assay buffer and substrate are removed from −20° C. and allowed to equilibrate to RT. Assay buffer is added to the substrate and swirled gently to mix. The CELL TITER-GLO® reagent (100 μL/well) is added to the cell plate and incubated at RT for 15 minutes. After 15 minutes, luminescence is read using a plate reader. Data is analyzed in Excel and graphed in GraphPad Prism. Statistical analysis and p value is calculated using Mann-Whitney nonparameteric t tests using GraphPad Prism.
(§2) Anti-proliferative effects of a test compound are categorized as insensitive (IC50≥1 μM), cytostatic (IC50<1 μM and % inhibition <70%) or cytotoxic (IC50<1 μM and % inhibition ≥70%).

UACC893 = tested on: UACC893
Experimental: as §1, §2

AZ521 = tested on: AZ521
Experimental: as §1, §2

TEK1 = tested on: TEK1
Experimental: as §1, §2

COV318 = conditions: COV318, OVARY, 7 days
Experimental: as §1, §2

MDAMB157 = tested on: MDAMB157
Experimental: as §1, §2

SKUT1 = tested on: SKUT1
Experimental: as §1, §2

MDAMB453 = tested on: MDAMB453
Experimental: as §1, §2

NUGC3 = tested on: NUGC3
Experimental: as §1, §2

SW48 = tested on: SW48
Experimental: as §1, §2

UMUC3 = tested on: UMUC3
Experimental: as §1, §2

NCIH146 = tested on: NCIH146
Experimental: as §1, §2

HEYA8 = tested on: HEYA8
Experimental: as §1, §2

HEPG2 = tested on: HEPG2
Experimental: as §1, §2

PANC1 = tested on: PANC1
Experimental: as §1, §2

HCC1143 = tested on: HCC1143
Experimental: as §1, §2

A2780 = tested on: A2780
Experimental: as §1, §2

IMR32 = tested on: IMR32
Experimental: as §1, §2

[1] = 168 h, read-out: Anti-proliferation effect IC50

Cc1cc(NC2CCN(C(=O)O[C@H]3CCN(C(=O)/C=C/CN(C)C)C3)CC2)n2ncc(C(C)C)c2n1 [Example 1, [(3S)-1-[(E)-4-(dimethylamino)but-2-enoyl]pyrrolidin-3-yl] 4-[(3-isopropyl-5-methyl-pyrazolo[1,5-a]pyrimidin-7-yl)amino]piperidine-1-carboxylate]
IC50 (KYSE30; Homo sapiens, KYSE-30, 168 h, read-out: Anti-proliferation effect IC50): 76 nM
Anti-proliferation effect % Inh. (KYSE30; KYSE30, OESOPHAGUS, 7 days): 76%
Anti-proliferation effect Outcome (KYSE30; KYSE30, OESOPHAGUS, 7 days): Cytotoxic (cytotoxic (IC50<1 μM and % inhibition ≥70%))
IC50 (UACC893; Homo sapiens, UACC-893, 168 h, read-out: Anti-proliferation effect IC50): 4150 nM
Anti-proliferation effect % Inh. (UACC893; UACC893, BREAST, 7 days): −51%
Anti-proliferation effect Outcome (UACC893; UACC893, BREAST, 7 days): Insensitive (insensitive (IC50≥1 μM))
Anti-proliferation effect % Inh. (AZ521; AZ521, STOMACH, 7 days): 76%
Anti-proliferation effect Outcome (AZ521; AZ521, STOMACH, 7 days): Cytotoxic (cytotoxic (IC50<1 μM and % inhibition ≥70%))
IC50 (AZ521; Homo sapiens, AZ-521, 168 h, read-out: Anti-proliferation effect IC50): 36 nM
IC50 (TEK1; [1]): 40 nM
Anti-proliferation effect % Inh. (TEK1; TEK1, BILIARY, 7 days): 87%
Anti-proliferation effect Outcome (TEK1; TEK1, BILIARY, 7 days): Cytotoxic (cytotoxic (IC50<1 μM and % inhibition ≥70%))
IC50 (COV318; [1]): > 10000 nM
Anti-proliferation effect % Inh. (COV318): 40%
IC50 (MDAMB157; Homo sapiens, MDA-MB-157, 168 h, read-out: Anti-proliferation effect IC50): 866 nM
Anti-proliferation effect % Inh. (MDAMB157; MDAMB157, BREAST, 7 days): 39%
Anti-proliferation effect Outcome (MDAMB157; MDAMB157, BREAST, 7 days): Cytostatic (cytostatic (IC50<1 μM and % inhibition <70%))
IC50 (SKUT1; Homo sapiens, SK-UT-1, 168 h, read-out: Anti-proliferation effect IC50): 41 nM
Anti-proliferation effect % Inh. (SKUT1; SKUT1, SOFT TISSUE, 7 days): 89%
Anti-proliferation effect Outcome (SKUT1; SKUT1, SOFT TISSUE, 7 days): Cytotoxic (cytotoxic (IC50<1 μM and % inhibition ≥70%))
IC50 (MDAMB453; Homo sapiens, MDA-MB-453, 168 h, read-out: Anti-proliferation effect IC50): 39 nM
Anti-proliferation effect % Inh. (MDAMB453; MDAMB453, BREAST, 7 days): 56%
Anti-proliferation effect Outcome (MDAMB453; MDAMB453, BREAST, 7 days): Cytostatic (cytostatic (IC50<1 μM and % inhibition <70%))
IC50 (NUGC3; Homo sapiens, NUGC-3, 168 h, read-out: Anti-proliferation effect IC50): 30 nM
Anti-proliferation effect % Inh. (NUGC3; NUGC3, STOMACH, 7 days): 81%
Anti-proliferation effect Outcome (NUGC3; NUGC3, STOMACH, 7 days): Cytotoxic (cytotoxic (IC50<1 μM and % inhibition ≥70%))
IC50 (SW48; Homo sapiens, SW48, 168 h, read-out: Anti-proliferation effect IC50): 5 nM
Anti-proliferation effect % Inh. (SW48; SW48, INTESTINE, 7 days): 89%
Anti-proliferation effect Outcome (SW48; SW48, INTESTINE, 7 days): Cytotoxic (cytotoxic (IC50<1 μM and % inhibition ≥70%))
IC50 (UMUC3; Homo sapiens, UMUC3, 168 h, read-out: Anti-proliferation effect IC50): 161 nM
Anti-proliferation effect % Inh. (UMUC3; UMUC3, URINARY, 7 days): 70%
Anti-proliferation effect Outcome (UMUC3; UMUC3, URINARY, 7 days): Cytotoxic (cytotoxic (IC50<1 μM and % inhibition ≥70%))
IC50 (NCIH146; Homo sapiens, NCI-H146, 168 h, read-out: Anti-proliferation effect IC50): 30 nM
Anti-proliferation effect % Inh. (NCIH146; NCIH146, LUNG, 7 days): 77%
Anti-proliferation effect Outcome (NCIH146; NCIH146, LUNG, 7 days): Cytotoxic (cytotoxic (IC50<1 μM and % inhibition ≥70%))
IC50 (HEYA8; HEY A8, 168 h, read-out: Anti-proliferation effect IC50): 112 nM
Anti-proliferation effect % Inh. (HEYA8; HEYA8, OVARY, 7 days): 89%
Anti-proliferation effect Outcome (HEYA8; HEYA8, OVARY, 7 days): Cytotoxic (cytotoxic (IC50<1 μM and % inhibition ≥70%))
Anti-proliferation effect % Inh. (HEPG2; HEPG2, LIVER, 7 days): 78%
Anti-proliferation effect Outcome (HEPG2; HEPG2, LIVER, 7 days): Cytotoxic (cytotoxic (IC50<1 μM and % inhibition ≥70%))
IC50 (HEPG2; Homo sapiens, HepG2, 168 h, read-out: Anti-proliferation effect IC50): 28 nM
IC50 (PANC1; Homo sapiens, PANC-1, 168 h, read-out: Anti-proliferation effect IC50): 71 nM
Anti-proliferation effect % Inh. (PANC1; PANC1, PANCREAS, 7 days): 47%
Anti-proliferation effect Outcome (PANC1; PANC1, PANCREAS, 7 days): Cytostatic (cytostatic (IC50<1 μM and % inhibition <70%))
Anti-proliferation effect % Inh. (HCC1143; HCC1143, BREAST, 7 days): 37%
Anti-proliferation effect Outcome (HCC1143; HCC1143, BREAST, 7 days): Insensitive (insensitive (IC50≥1 μM))
IC50 (HCC1143; Homo sapiens, HCC1143, 168 h, read-out: Anti-proliferation effect IC50): > 10000 nM
Anti-proliferation effect % Inh. (A2780; A2780, OVARY, 7 days): 74%
Anti-proliferation effect Outcome (A2780; A2780, OVARY, 7 days): Cytotoxic (cytotoxic (IC50<1 μM and % inhibition ≥70%))
IC50 (A2780; Homo sapiens, A2780, 168 h, read-out: Anti-proliferation effect IC50): 52 nM
IC50 (IMR32; Homo sapiens, IMR-32, 168 h, read-out: Anti-proliferation effect IC50): 2 nM
Anti-proliferation effect % Inh. (IMR32; IMR32, CNS, 7 days): 100%
Anti-proliferation effect Outcome (IMR32; IMR32, CNS, 7 days): Cytotoxic (cytotoxic (IC50<1 μM and % inhibition ≥70%))
